In PubChem BioAssay (NCI):
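Compound exposure: 48 hours, 5 concentrations, 96-well plates. TGI: concentration producing complete growth inhibition.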

Key:
Assay in all cases: NCI anticancer screen, dose series, 48 h
K-562 leukemia = test system: K-562 leukemia
HT29 colon = test system: HT29 colon
SK-MEL-5 melanoma = test system: SK-MEL-5 melanoma
IGROV1 ovarian = test system: IGROV1 ovarian
SNB-19 CNS = test system: SNB-19 CNS
UO-31 renal = test system: UO-31 renal
BT-549 breast = test system: BT-549 breast
DU-145 prostate = test system: DU-145 prostate
MDA-N = test system: MDA-N
SR leukemia = test system: SR leukemia
HOP-62 NSCLC = test system: HOP-62 NSCLC
OVCAR-4 ovarian = test system: OVCAR-4 ovarian
CAKI-1 renal = test system: CAKI-1 renal
HCT-116 colon = test system: HCT-116 colon
NCI-H226 lung = test system: NCI-H226 lung
MCF7 breast = test system: MCF7 breast
HL-60(TB) leukemia = test system: HL-60(TB) leukemia
KM12 colon = test system: KM12 colon
TK-10 renal = test system: TK-10 renal
NCI-H522 lung = test system: NCI-H522 lung
T-47D breast = test system: T-47D breast
SNB-75 CNS = test system: SNB-75 CNS
LOX IMVI melanoma = test system: LOX IMVI melanoma
ACHN renal = test system: ACHN renal
OVCAR-5 ovarian = test system: OVCAR-5 ovarian
MOLT-4 leukemia = test system: MOLT-4 leukemia
SF-268 CNS = test system: SF-268 CNS
A549 NSCLC = test system: A549 NSCLC
CCRF-CEM leukemia = test system: CCRF-CEM leukemia
MALME-3M melanoma = test system: MALME-3M melanoma
HS 578T breast = test system: HS 578T breast
786-0 renal = test system: 786-0 renal
M14 melanoma = test system: M14 melanoma
UACC-257 melanoma = test system: UACC-257 melanoma
SW-620 colon = test system: SW-620 colon
SN12C renal = test system: SN12C renal
HCC-2998 colon = test system: HCC-2998 colon
OVCAR-3 ovarian = test system: OVCAR-3 ovarian
U251 CNS = test system: U251 CNS
OVCAR-8 ovarian = test system: OVCAR-8 ovarian
SK-MEL-28 melanoma = test system: SK-MEL-28 melanoma
HOP-92 NSCLC = test system: HOP-92 NSCLC
SF-539 CNS = test system: SF-539 CNS
PC-3 prostate = test system: PC-3 prostate
EKVX NSCLC = test system: EKVX NSCLC
HCT-15 colon = test system: HCT-15 colon
MDA-MB-231 breast = test system: MDA-MB-231 breast
SF-295 CNS = test system: SF-295 CNS
RXF 393 renal = test system: RXF 393 renal
NCI-H23 lung = test system: NCI-H23 lung
A498 renal = test system: A498 renal
NCI-H460 lung = test system: NCI-H460 lung
RPMI-8226 leukemia = test system: RPMI-8226 leukemia
SK-OV-3 ovarian = test system: SK-OV-3 ovarian
SK-MEL-2 melanoma = test system: SK-MEL-2 melanoma
NCI/ADR-RES ovarian = test system: NCI/ADR-RES ovarian
UACC-62 melanoma = test system: UACC-62 melanoma
MDA-MB-435 = test system: MDA-MB-435
COLO 205 colon = test system: COLO 205 colon

Measured: TGI

COC(=O)c1cc(C)ccc1/C=C1\Cc2cccc(C)c2C1=O
> 100 µM: K-562 leukemia | HT29 colon | IGROV1 ovarian | SNB-19 CNS | UO-31 renal | BT-549 breast | DU-145 prostate | SR leukemia | HOP-62 NSCLC | OVCAR-4 ovarian | CAKI-1 renal | HCT-116 colon | NCI-H226 lung | MCF7 breast | HL-60(TB) leukemia | KM12 colon | TK-10 renal | T-47D breast | SNB-75 CNS | ACHN renal | OVCAR-5 ovarian | MOLT-4 leukemia | SF-268 CNS | A549 NSCLC | CCRF-CEM leukemia | HS 578T breast | 786-0 renal | M14 melanoma | UACC-257 melanoma | SW-620 colon | HCC-2998 colon | OVCAR-3 ovarian | U251 CNS | SK-MEL-28 melanoma | HOP-92 NSCLC | SF-539 CNS | EKVX NSCLC | HCT-15 colon | MDA-MB-231 breast | SF-295 CNS | RXF 393 renal | NCI-H23 lung | A498 renal | NCI-H460 lung | RPMI-8226 leukemia
62.2 µM: PC-3 prostate
66.2 µM: LOX IMVI melanoma
96 µM: SN12C renal
81.4 µM: OVCAR-8 ovarian
96.9 µM: MALME-3M melanoma
61.8 µM: MDA-N
25.9 µM: SK-MEL-5 melanoma
58.7 µM: NCI-H522 lung

CCCNC(=S)N=Nc1c(O)[nH]c2ccccc12
> 100 µM: SK-OV-3 ovarian | SK-MEL-2 melanoma | K-562 leukemia | HT29 colon | SK-MEL-5 melanoma | NCI/ADR-RES ovarian | IGROV1 ovarian | SNB-19 CNS | UO-31 renal | DU-145 prostate | MDA-N | SR leukemia | HOP-62 NSCLC | OVCAR-4 ovarian | CAKI-1 renal | HCT-116 colon | UACC-62 melanoma | NCI-H226 lung | MCF7 breast | HL-60(TB) leukemia | KM12 colon | TK-10 renal | NCI-H522 lung | T-47D breast | SNB-75 CNS | LOX IMVI melanoma | ACHN renal | OVCAR-5 ovarian | MOLT-4 leukemia | SF-268 CNS | A549 NSCLC | CCRF-CEM leukemia | MALME-3M melanoma | HS 578T breast | 786-0 renal | MDA-MB-435 | M14 melanoma | UACC-257 melanoma | SW-620 colon | SN12C renal | HCC-2998 colon | OVCAR-3 ovarian | U251 CNS | COLO 205 colon | OVCAR-8 ovarian | SK-MEL-28 melanoma | HOP-92 NSCLC | SF-539 CNS | PC-3 prostate | EKVX NSCLC | HCT-15 colon | MDA-MB-231 breast | SF-295 CNS | RXF 393 renal | NCI-H23 lung | A498 renal | NCI-H460 lung | RPMI-8226 leukemia

CN1CCN(C(=S)N(C(=O)c2ccco2)C2CCCCC2)CC1
> 100 µM: SK-MEL-2 melanoma | K-562 leukemia | HT29 colon | SK-MEL-5 melanoma | IGROV1 ovarian | SNB-19 CNS | UO-31 renal | BT-549 breast | DU-145 prostate | MDA-N | SR leukemia | OVCAR-4 ovarian | UACC-62 melanoma | NCI-H226 lung | MCF7 breast | KM12 colon | TK-10 renal | NCI-H522 lung | T-47D breast | SNB-75 CNS | LOX IMVI melanoma | ACHN renal | OVCAR-5 ovarian | SF-268 CNS | A549 NSCLC | CCRF-CEM leukemia | MALME-3M melanoma | HS 578T breast | 786-0 renal | MDA-MB-435 | M14 melanoma | UACC-257 melanoma | SW-620 colon | SN12C renal | HCC-2998 colon | OVCAR-3 ovarian | U251 CNS | COLO 205 colon | OVCAR-8 ovarian | SK-MEL-28 melanoma | HOP-92 NSCLC | HCT-15 colon | MDA-MB-231 breast | SF-295 CNS | RXF 393 renal | NCI-H23 lung | NCI-H460 lung | RPMI-8226 leukemia
